Reference: patent US20220267280A1, “SMALL MOLECULE STIMULATORS OF THE CORE PARTICLE OF THE PROTEASOME” (Purdue Research Foundation, priority 2019, published 2022)
“Also recorded” adds a separate entry of the source.

Legend:
20S CP [1] = experiment: standard FRET assay with the standard 20S CP; format: biochemical; details: for % activity increase (increase in 20S proteasome activity): derivative at 25 μM, in triplicate
Experimental: (§1) Miconazole was discovered as a stimulator of the 20S CP during a screen of the NIH Clinical Collection (NCC), using our previously described FRET assay.^15,21 However, this screen utilized a modulated FRET peptide that substituted an aspartic acid for the phenylalanine. Hydrolysis of the FRET peptide produces a fluorescent signal that can be monitored over time to determine the activity level of the 20S CP. Screening the NCC was performed in 384-well plates on a Tecan plate reader, monitoring the emission wavelength of the FRET peptide over a 1 hr period. Each compound was screened at a final concentration of 25 μM in singlet. A linear regression was performed for the change in fluorescence over time, producing a slope. This value for each compound was then compared to that of a DMSO control (20S CP basal level activity), which was included in triplicate for each plate. Primary hit compounds were determined to be those with a slope 50% greater than that of the DMSO control.
All primary hits were then validated in triplicate, using this reporter and the standard FRET reporter. Following triplicate validation, the hits were purchased from other sources and tested once again for the effect of each on the 20S CP, using the standard FRET assay (FIG. 2A).
Following a mechanistic analysis of miconazole, a dose-response study was performed using the FRET assay and the standard 20S CP.
Each derivative of miconazole is tested at 25 μM in triplicate, using our standard FRET assay. Included in each plate is 25 μM miconazole in triplicate as a positive control. This is also performed to determine how well a derivative compares to the original compound. Derivatives that enhance 20S CP activity are then used for further study.

20S CP [2] = experiment: GFP-α-synuclein fusion cell assay, Western blot for GFP; format: cell-based; details: for alpha-synuclein degradation (quantitation of gel bands): 25 μM for 16 hrs, duplicate
From the text: In this study, HEK-293T cells are transiently transfected to express a GFP-α-synuclein construct. α-Synuclein is a known substrate of the 20S CP, whereas GFP is too large and well-folded to enter the gate of the 20S CP for degradation. Therefore, 20S CP-mediated hydrolysis of this construct degrades the α-synuclein portion, leaving behind free GFP. […] After this time period, the cells were lysed and analyzed by Western blot for GFP. Because 20S CP-mediated hydrolysis of this fusion protein can only degrade the α-synuclein portion, the Western blot produces two clear bands, corresponding to the full fusion protein (GFP-α-synuclein) and free GFP. Quantitative analysis is performed for each sample, quantifying the relative densities of each band. The ratio of free GFP to the GFP-α-synuclein fusion was calculated. This calculated ratio of the miconazole-treated cell lysates was compared to the control (DMSO) to determine a change in 20S CP-mediated degradation.
We perform similar studies to those described above for each derivative that warrants further evaluation, including: a mechanistic analysis (FRET assay using the immunoproteasome and 26S proteasome), dose-response study to determine the EC50 of each compound, and the GFP-α-synuclein cell assay to examine the effectiveness of the miconazole derivative in cells. For the cell assay, miconazole is included as a positive control.

20S CP [3] = experiment: screen of the NIH Clinical Collection, FRET assay with modulated FRET peptide; format: biochemical; details: 25 μM, singlet, 1 hr
Experimental: as §1

immunoproteasome (iCP) = experiment: FRET assay using the immunoproteasome; format: biochemical; details: 25 μM
Experimental: (§2) In order to determine the general mechanism of action of miconazole (i.e. allosteric modulator of a hydrolysis activity or “gate-opener”), a series of FRET assays were performed with 25 μM miconazole, using the immunoproteasome (iCP) and the 26S proteasome. The immunoproteasome contains a high degree of similarity to the standard 20S CP (sCP); however, the catalytic β-subunits have been exchanged, leading to a variation in the hydrolysis activities of this protease compared to the standard 20S CP.^22 The gates of both the immunoproteasome and the 20S CP are identical. The 26S proteasome is the standard 20S CP that has been capped by the 19S regulatory particle, which binds the a-ring of the 20S CP and creates an open-gate conformation.^23 Gate-openers of the 20S CP should still impact the activity of the immunoproteasome; however, because the gate is precluded in the 26S proteasome, this type of stimulator is believed to be ineffective with this isoform of the proteasome Similarly, a stimulator that is able to enhance at least one of the catalytic sites of the 20S CP specifically may be ineffective with the immunoproteasome, as this isoform contains different catalytic subunits than the standard 20S CP. This type of stimulator will still impact the activity of the 26S proteasome, as it contains the standard 20S CP.

26S proteasome = experiment: FRET assay using the 26S proteasome; format: biochemical; details: 25 μM
Experimental: as §2

| SMILES | % activity increase (increase in 20S proteasome activity) (20S CP [1]) [%] | also measured |
| --- | --- | --- |
| Cc1ccc(COC(Cn2cccc2)c2ccc(Cl)cc2Cl)c(C)c1 (stereo not shown) [MD1] | 0 |  |
| Fc1ccc(COC(Cn2cccc2)c2ccc(Cl)cc2Cl)c(F)c1 (stereo not shown) [MD2] | 0 |  |
| Clc1ccc(C(Cn2cccc2)OCc2ccccc2)c(Cl)c1 (stereo not shown) [MD3] | 0 |  |
| Clc1ccc(C(Cn2cccc2)OCc2ccc(Br)cc2Br)c(Cl)c1 (stereo not shown) [MD4] | 0 |  |
| Clc1ccc(C(Cn2ccnc2)OCc2ccccc2Cl)c(Cl)c1 (stereo not shown) [MD5] | 122 |  |
| Clc1ccc(C(Cn2ccnc2)OCc2c(Cl)cccc2Cl)c(Cl)c1 (stereo not shown) [MD6] | 171 |  |
| Clc1ccc(COC(Cn2ccnc2)c2ccc(Cl)cc2Cl)cc1 (stereo not shown) [MD7] | 0 |  |
| C#CC[n+]1ccn(CC(OCc2ccc(Cl)cc2Cl)c2ccc(Cl)cc2Cl)c1.[Br-] (stereo not shown) [MD8] | 0 |  |
| CC(C)(C)c1ccc(COC(Cn2ccnc2)c2ccc(Cl)cc2Cl)cc1 (stereo not shown) [MDX1] | 248 | alpha-synuclein degradation (quantitation of gel bands) (20S CP [2]): increase in alpha-synuclein degradation |
| FC(F)(F)c1ccc(COC(Cn2ccnc2)c2ccc(Cl)cc2Cl)cc1 (stereo not shown) [MDX2] | 232 | alpha-synuclein degradation (quantitation of gel bands) (20S CP [2]): increase in alpha-synuclein degradation |
| CC(C)(C)c1ccc(C[n+]2ccn(CC(OCc3ccc(Cl)cc3Cl)c3ccc(Cl)cc3Cl)c2)cc1.[Br-] (stereo not shown) [MDX3] | 0 |  |
| Clc1ccc(COC(Cn2ccnc2)c2ccc(Cl)cc2Cl)c(Cl)c1 (stereo not shown) [miconazole, reference compound] |  | effect on standard 20S CP (sCP) activity (20S CP [1]; 25 μM): effective stimulator; also recorded: stimulatory effect; EC50 (20S CP [1]; read-out: EC50 (effective concentration that induces 50% of its maximum stimulatory effect), dose-response, standard 20S CP (sCP)): 20 µM; increase of 20S CP activity (slope vs DMSO control) (20S CP [3]): 299%; effect on immunoproteasome (iCP) activity (immunoproteasome (iCP)): effective stimulator; also recorded: stimulatory effect; effect on 26S proteasome activity (26S proteasome): no effect; enhancement of degradation of α-synuclein over the DMSO control (ratio of free GFP to GFP-α-synuclein) (20S CP [2]; HEK-293T cells, 25 μM, 24 hr): 200-300% |
